Experimental data as given in publication PMC10471769, “Biochemical analysis of Komagataella phaffii oxidative folding proposes novel regulatory mechanisms of disulfide bond formation in yeast” (Scientific Reports, 2023).

Experiments:
[1] = biological target: T1, monomeric K. phaffii Ero1 (Komagataella phaffii, UniProt F2QNN1, C136A); test: absorbance at […] nm after reflavination and size exclusion; assay type: binding; conditions: stoichiometry, no affinity constant; 1:2 molar excess FAD+ overnight on ice, phosphate pH 7.0
T1 construct: His-tagged 1-384 active core, C-terminal amphipathic helix removed, monomer; E. coli BL21(DE3) with CyDisCo
T1 sequence (F2QNN1 entry or part of it C136A): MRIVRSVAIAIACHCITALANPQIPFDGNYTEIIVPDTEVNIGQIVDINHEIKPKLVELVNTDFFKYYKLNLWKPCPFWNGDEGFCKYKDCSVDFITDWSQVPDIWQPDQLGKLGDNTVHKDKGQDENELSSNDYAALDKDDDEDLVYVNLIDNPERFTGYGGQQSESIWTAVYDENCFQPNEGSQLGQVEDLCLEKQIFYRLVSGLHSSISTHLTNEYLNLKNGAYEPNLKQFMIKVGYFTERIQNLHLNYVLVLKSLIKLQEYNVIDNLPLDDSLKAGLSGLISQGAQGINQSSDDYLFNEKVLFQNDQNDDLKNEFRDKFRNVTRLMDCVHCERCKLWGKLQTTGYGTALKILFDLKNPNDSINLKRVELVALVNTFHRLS

[2] = biological target: T2, K. phaffii Ero1-Pdi1 complex (wild type) (Komagataella phaffii, UniProt F2QNN1); test: as above; assay type: binding; conditions: stoichiometry, no affinity constant; 1:2 molar excess FAD+ overnight on ice, phosphate pH 7.0
T2 construct: 1:1 disulfide-linked heterodimer (Ero1 Cys136-Pdi1 Cys404); His-tagged Ero1 1-384 core without C-terminal amphipathic helix (45 kDa) plus Pdi1 (56 kDa); E. coli BL21(DE3) with customized CyDisCo; with Protein disulfide-isomerase
T2 sequence (F2QNN1 entry or part of it): as the sequence (F2QNN1 entry or part of it C136A) above, with A136C counted along it
T2 sequence (F2QY05 entry or part of it, further chain): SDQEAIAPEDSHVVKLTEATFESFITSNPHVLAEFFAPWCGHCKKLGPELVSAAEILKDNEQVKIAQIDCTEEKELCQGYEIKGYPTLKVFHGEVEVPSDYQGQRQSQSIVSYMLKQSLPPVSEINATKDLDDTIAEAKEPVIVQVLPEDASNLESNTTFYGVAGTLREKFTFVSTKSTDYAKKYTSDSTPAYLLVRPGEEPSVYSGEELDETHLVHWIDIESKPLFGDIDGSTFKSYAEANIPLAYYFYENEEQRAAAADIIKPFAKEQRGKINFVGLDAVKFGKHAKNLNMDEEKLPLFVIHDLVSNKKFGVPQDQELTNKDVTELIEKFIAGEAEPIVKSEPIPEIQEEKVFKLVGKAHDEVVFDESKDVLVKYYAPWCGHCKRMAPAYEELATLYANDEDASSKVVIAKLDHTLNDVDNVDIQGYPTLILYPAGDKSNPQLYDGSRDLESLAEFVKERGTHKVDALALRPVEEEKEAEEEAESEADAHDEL

Cc1cc2nc3c(=O)[nH]c(=O)nc-3n(C[C@H](O)[C@H](O)[C@H](O)COP(=O)(O)OP(=O)(O)OC[C@H]3O[C@@H](n4cnc5c(N)ncnc54)[C@H](O)[C@@H]3O)c2cc1C [FAD+]
FAD+ molecules per monomer [1]: 0.85 ± 0.04 molecules per monomer
FAD+ molecules per complex [2]: 0.93 ± 0.05 molecules per complex
